Like-named read-outs stand apart in the source and are kept apart here.

By inhibition is commonly meant the change of the read-out against control, counted positive when it falls.

The test system of series [1] is HL-60 cells. Put plainly: cells. To be noted: Homo sapiens, HL-60, 24 h, read-out: inhibition rate (IR%) on HL-60 cells.
A further series deals with MCF-7 cells. The experiment in a line: cells. Conditions: Homo sapiens, MCF7, 24 h, read-out: inhibition rate (IR%) on MCF-7 cells.
Series [2] concerns K562 cells. Put plainly: cells. To be noted: Homo sapiens, K562, 24 h, read-out: inhibition rate (IR%) on K562 cells.
Series [3] has as its system BGC-823 cells. The experiment in a line: cells. To be noted: Homo sapiens, BGC-823, 24 h, read-out: inhibition rate (IR%) on BGC-823 cells.
Series [4] concerns HeLa cells. The experiment in a line: cells. Conditions: Homo sapiens, 24 h, read-out: inhibition rate (IR%) on HeLa cells.
The test system of series [5] is HeLa cells. To be noted: MTT, 24 h.
Series [6] relates to BGC-823 cells. To be noted: MTT, 24 h.
For series [7], the system named is HL-60 cells. To be noted: MTT, 24 h.
Series [8] relates to K562 cells. Details: inhibition rate (IR%) on K562 cells: dose or concentration left out as unconfirmed.
Series [9] concerns murine leukemia P388 and L1210, and human epidermoid carcinoma KB cells. To be noted: one range for both compounds and three cell lines; cited from earlier work. As for the experimental part:
(§1) Fellutamide A and B (8) were originally identified for their cytotoxic properties on murine leukemia P388 and L1210, and human epidermoid carcinoma KB cells with IC50 values 0.1–0.8 µg/mL [15].

The subject of series [10] is human prostate carcinoma PC-3 cells. Conditions: read-out: IC50, cytotoxic against PC-3 cells; cited from earlier work. As for the experimental part:
as §1

The mark [11] stands for this setting: from IR% at different concentrations.
Setting [12] is: MTT, 24 h at 37 °C, OD 570 nm, OD means of three wells.

For `O=c1[nH]cc(F)c(=O)[nH]1` [Compound 5-FU, 5-fluorouracil], the inhibition at 100 µg/mL stood at 38.2% in the series on HL-60 cells [1]; 47.4% in the series on MCF-7 cells; 48.5% in the series with K562 cells [2]; 47.8% in the series with BGC-823 cells [3]; 37.4% in the series with HeLa cells [4].

Take `CCCCCCCCC[C@@H](O)CC(=O)N[C@@H](CC(N)=O)C(=O)N[C@@H](CCC(N)=O)C(=O)N[C@H](C=O)CC(C)C` [Compound 8, Fellutamide B]: the “half-inhibitory concentration (IC50) for HeLa” value in the series with HeLa cells [5] (setting [11]) came out at 59.5 µg/mL. Moreover, the IC50 with HeLa cells [5] (read-out: half-inhibitory concentration (IC50) for HeLa, value in brackets, molar) was 107 µM; with BGC-823 cells [6] (read-out: half-inhibitory concentration (IC50) for BGC-823, value in brackets, molar), 140 µM; in the series on HL-60 cells [7] (read-out: half-inhibitory concentration (IC50) for HL-60, value in brackets, molar), 108 µM; in the series on K562 cells [8] (24 h) it was 52.5 µM. Moreover, the “half-inhibitory concentration (IC50) for BGC-823” value with BGC-823 cells [6] (setting [11]) is 77.9 µg/mL. In addition, in the series on HL-60 cells [7] (setting [11]), the “half-inhibitory concentration (IC50) for HL-60” value is reported as 59.9 µg/mL. The “half-inhibitory concentration (IC50) for K562” value in the series with K562 cells [8] (MTT, 24 h, from IR% at different concentrations) was 29.1 µg/mL. In series [9], the “IC50, cytotoxic properties on P388, L1210 and KB cells” value was 0.1 to 0.8 µg/mL.

In the case of `CCCCC[C@H](OC)c1c(O)cc2c(c1O)C(=O)c1c(O)cc(O)cc1C2=O` [Compound 10, 1′-O-Methylaverantin], the “inhibition rate (IR%) on K562 cells” value with K562 cells [8] (setting [12]) worked out at 11.6%.

For `CCCCC[C@H](O)c1c(O)cc2c(c1O)C(=O)c1c(O)cc(O)cc1C2=O` [Compound 11, Averantin], in the series with K562 cells [8] (setting [12]), the “inhibition rate (IR%) on K562 cells” value came to 51.9%.

`C[C@]12CCC[C@H](O1)c1c(cc3c(c1O)C(=O)c1c(O)cc(O)cc1C3=O)O2` [Compound 12, Averufin]: the “inhibition rate (IR%) on K562 cells” value in the series on K562 cells [8] (setting [12]) came to 37.9%.

For the compound `C[C@]12CC[C@H](O)[C@H](O1)c1c(cc3c(c1O)C(=O)c1c(O)cc(O)cc1C3=O)O2` [Compound 13, Nidurufin], in the series on K562 cells [8] (setting [12]), the “inhibition rate (IR%) on K562 cells” value worked out at 25.5%.

In the case of `COc1cc2c(c3oc4cccc(O)c4c(=O)c13)[C@@H]1C=CO[C@@H]1O2` [Compound 14, Sterigmatocystin], the “inhibition rate (IR%) on K562 cells” value in the series with K562 cells [8] worked out at 37.5%.

For the compound Fellutamide A [reference compound], the “IC50, cytotoxic properties on P388, L1210 and KB cells” value in [9] is 0.1 to 0.8 µg/mL.

As for fellutamide D, in [10], the IC50 was 0.16 µM.

As for fellutamide E, the IC50 in series [10] is 0.44 µM.
